In patent EP4752149A1, “OXYGEN-CONTAINING FUSED TRICYCLIC DERIVATIVE, AND PREPARATION METHOD THEREFOR AND USE THEREOF” (Tuojie Biotech (Shanghai) Co., Ltd., priority 2023, dated 2025):

What was measured:
[1] = test system: Human breast cancer cells (SUM-149PT); test: Inhibitory activity against human breast cancer cells (SUM-149PT), CTG cell viability; type: cell-based; conditions: Homo sapiens, SUM149PT, 120 h, 5 days with compound
Description: (§1) Human breast cancer cells (SUM-149PT) were cultured using a DMEM culture medium containing 10% FBS in a cell incubator (37 °C, 5% CO2). On day one, the cells were plated in a 384-well plate at a cell concentration of 800 cells/well and cultured overnight in an incubator. On day two, the cells were treated with compounds. The highest compound concentration was 10 µM and was diluted 3-fold to obtain 9 concentrations, and the final concentration of DMSO was 0.2%. After the cells were cultured in the incubator for another 5 days, the cell viability was tested using a CTG Cell Viability Detection Reagent; the testing method was consistent with the method provided by the kit. Data were processed using XLFit, and IC50 was calculated. [formula] X: the logarithm of the compound concentration; Y: % inhibition. Table 14. The IC50 (nM) of a compound of the present disclosure against SUM-149PT

[2] = test system: Human breast cancer cells (MDA-MB-231); test: Inhibitory activity against human breast cancer cells (MDA-MB-231), CTG cell viability; type: cell-based; conditions: Homo sapiens, 168 h, 7 days with compound
Description: as §1, with “cells (MDA-MB-231)” for “cells (SUM-149PT)”, “of 600” for “of 800”, “another 7” for “another 5”, “Table 8.” for “Table 14.”, “against MDA-MB-231” for “against SUM-149PT”

[3] = test system: MCF-7/Palbo-R; test: Inhibitory activity against CDK4/6 inhibitor-resistant human breast cancer cells (MCF-7 palbociclib-resistant cell line), cell viability; type: cell-based; conditions: Homo sapiens, MCF7, 120 h, 5 days with compound, CellTiter-Glo cell viability
Description: MCF-7/Palbo-R cell source: MCF7 cells (Nanjing Cobioer Biosciences Co., Ltd.) were treated with 1 µM palbociclib for a long time, and drug resistance was induced.
as §1, with “The palbociclib-resistant” for “Human”, “cell line MCF-7/Palbo-R was” for “cells (SUM-149PT) were”, “CellTiter-Glo luminescent cell viability assay kit;” for “CTG Cell Viability Detection Reagent;”, “XLfit,” for “XLFit,”, “calculated.” for “calculated. [formula] X: the logarithm of the compound concentration; Y: % inhibition. Table 14. The IC50 (nM) of a compound of the present disclosure against SUM-149PT”
The inhibition rates (IR) of the test compounds were calculated using the following formula: IR (%) = (1 - (RLU compound - RLU blank control) / (RLU vehicle control-RLU blank control)) × 100%. Table 16. The IC50 (nM) of a compound of the present disclosure against MCF-7/Palbo-R

[4] = test system: Triple-negative breast cancer cells (HCC1806); test: Inhibitory activity against triple-negative breast cancer cells (HCC1806), CTG cell viability; type: cell-based; conditions: Homo sapiens, 168 h, 7 days with compound
Description: Triple-negative breast cancer cells (HCC1806, Nanjing Cobioer Biosciences Co., Ltd.) were cultured using an RPMI 1640 culture medium containing 10% FBS in a cell incubator (37 °C, 5% CO2). On day one, the cells were plated in a 384-well plate at a cell concentration of 200 cells/well and cultured overnight in an incubator. On day two, the cells were treated with compounds. The highest compound concentration was 10 µM and was diluted 3-fold to obtain 9 concentrations, and the final concentration of DMSO was 0.2%. After the cells were cultured in the incubator for another 7 days, the cell viability was tested using a CTG Cell Viability Detection Reagent (MCE); the testing method was consistent with the method provided by the kit. Data were processed using XLfit, and IC50 was calculated. [formula] X: the logarithm of the compound concentration; Y: inhibition%. Table 4. The IC50 (nM) of compounds of the present disclosure against HCC1806

[5] = target: T1, CDK4/CycD1 (Homo sapiens, UniProt P11802); test: Activity against cyclin-dependent kinase CDK4/CycD1 (Caliper EZ Reader mobility shift); type: biochemical; conditions: 1 h at room temperature; highest concentration 1 µM
T1 construct: purchased Invitrogen PR8064A
T1 sequence (P11802 whole entry): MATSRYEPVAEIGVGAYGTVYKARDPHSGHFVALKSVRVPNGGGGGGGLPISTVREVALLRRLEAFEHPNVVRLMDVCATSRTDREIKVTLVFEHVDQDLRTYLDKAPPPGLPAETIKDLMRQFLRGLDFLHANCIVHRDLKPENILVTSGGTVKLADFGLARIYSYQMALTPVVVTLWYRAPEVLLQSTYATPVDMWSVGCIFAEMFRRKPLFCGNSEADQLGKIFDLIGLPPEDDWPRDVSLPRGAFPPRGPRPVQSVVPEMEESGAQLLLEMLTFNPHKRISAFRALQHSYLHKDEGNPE
T1 sequence (P24385 whole entry partner): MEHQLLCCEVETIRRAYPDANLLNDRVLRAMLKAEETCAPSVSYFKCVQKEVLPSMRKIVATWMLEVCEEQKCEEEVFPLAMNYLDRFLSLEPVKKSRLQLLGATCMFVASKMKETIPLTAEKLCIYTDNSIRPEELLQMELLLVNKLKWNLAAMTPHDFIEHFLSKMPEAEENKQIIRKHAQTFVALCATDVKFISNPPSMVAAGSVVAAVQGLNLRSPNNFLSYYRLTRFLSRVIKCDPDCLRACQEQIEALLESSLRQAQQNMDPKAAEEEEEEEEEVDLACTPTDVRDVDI
Description: (§2) The test compounds (the highest concentration was 1 µM) were added using Echo 650 and serially diluted 3-fold to obtain a total of 9 concentration points. The assay plate was sealed and centrifuged at 1000 g for 1 min. 2.5× enzymes were prepared in a 1× kinase buffer (50 mM HEPES, pH 7.5, 0.0015% Brij-35, […]), and the 2.5× enzymes (10 µL) were added to the 384-well assay plate. The plate was centrifuged at 1000 g for 30 s and left to stand at room temperature for 10 min. 2.5× substrate and ATP mixtures were prepared in the 1× kinase buffer, and the 2.5× substrate and ATP mixtures (10 µL) were added to start reactions. The assay plate was centrifuged at 1000 g for 30 s, sealed, and incubated at room temperature for 1 h. 25 µL of a stop solution reagent (100 mM HEPES, pH 7.5, 0.015% Brij-35, 0.2% Coating Reagent #3, 50 mM EDTA) was added.
(§3) Conversion rate data were read on a CaliperEZ Reader. The conversion rate data were copied from the CaliperEZ Reader. The conversion rates were converted to inhibition rate data. Inhibition% = (max−conversion)/(max−min) × 100, [formula] where "min" is the reading of a control sample well to which no enzyme was added for reaction; "max" is the reading of a control well to which DMSO was added.
(§4) IC50 values were obtained by fitting using XLFit excel add-in version 5.4.0.8. Y = Bottom + (Top−Bottom)/(1+((IC50/X))^(∧)HillSlope). [formula] Table 6. […]

[6] = target: T2, CDK2/CycE1 (Homo sapiens, UniProt P24941); test: Activity against cyclin-dependent kinase CDK2/CycE1 (Caliper EZ Reader mobility shift); type: biochemical; conditions: 1 h at room temperature; highest concentration 1 µM
T2 construct: purchased Carna 04-165
Description: as §2, §3, §4

C[C@H]1COc2c(-c3nc(Nc4ccc(N5CCOCC5=O)cc4F)ncc3Cl)cc(F)c3nc(C(C)(C)O)n1c23 [Example 1, (S)-4-(4-((5-Chloro-4-(8-fluoro-2-(2-hydroxypropan-2-yl)-3-methyl-3,4-dihydro-5-oxa-1,2a-diazaacenaphthylen-6-yl)pyrimidin-2-yl)amino)-3-fluorophenyl)morpholin-3-one]
IC50 [1]: 256 nM
IC50 [2]: 117 nM
IC50 [3]: 180 nM
IC50 [4]: 150 nM
IC50 [5]: 3.8 nM
IC50 [6]: 9.8 nM
